“Also recorded” adds a separate entry of the source.
Tests used:
[1] = system: human ovarian clear cell adenocarcinoma cell line (ES2); experiment: PD-L1 expression in tumor cells of ES2 tumor mass in nude mice (Experimental Example 9); assay type: in vivo; details: ES2 subcutaneous in nude mice; 10 mg/kg orally once daily, 7 days; vs vehicle
Protocol: The efficacy of the PAI-1 inhibitor against human cancer cells (ovarian cancer cells) was studied in vivo. Specifically, 5×10^5 cells of a human ovarian clear cell adenocarcinoma cell line (ES2) were transplanted subcutaneously in nude mice. One week later, engraftment of more than 5 mm of tumor mass in the major axis was confirmed. Subsequently, the PAI-1 inhibitor was orally administered once daily at 10 mg/kg for a total of 7 days. On the next day of the final administration, the tumor mass was collected from the mice, chopped with scissors, suspended in a 0.025% collagenase solution (FUJIFILM Wako Pure Chemical Corporation), and treated at 37° C. for 2 hours to break cell-cell bonds. The cells obtained by enzymatic treatment were stained with an anti-PD-L1 antibody (clone name: 10F.G92) labelled with Allophycocyanin (APC), and the PD-L1 expression level in the tumor cells was determined with a flow cytometer. As a comparative control experiment, cells were collected also from the tumor mass in the same manner in terms of a mouse group to which only physiological saline (vehicle) was administered instead of the PAI-1 inhibitor, and the PD-L1 expression level in the tumor cells was determined with a flow cytometer.

[2] = system: mouse leukemia cell line (32Dp210); experiment: PD-L1 expression level by flow cytometry in 32Dp210 cells (Experimental Examples 2 and 3); assay type: cell-based; details: inhibitor 50 μM with rPAI-1 40 nM, 2 days, listed as PAI-1 inhibitor
Excerpt: In order to analyze the characteristics of cancer cells highly expressing PAI-1, a rouse leukemia cell line (obtained by transfecting 32D cells, i.e., a myelomonocytic progenitor cell line, with BCR-ABL; referred to below as “32Dp210”) was transfected with PAI-1 to produce cells overexpressing PAI-1 (32d PAI-1 OE). Next, in order to analyze the expression level of PD-L1, which is an ICM, in the cells, the cells were stained with an anti-PD-L1 antibody (clone name: 10F.G92) labeled with Allophycocyanin (APC) as a fluorescent dye, and subjected to flow cytometry. As a comparative control experiment, a 32Dp210 cell line without transfection of PAI-1 (wild-type cells: 32D WT) was analyzed in the same manner for the PD-L1 expression level.
Specifically, artificially produced recombinant PAI-1 (referred to below as “rPAI-1”; 40 nM) or a culture supernatant of the cells overexpressing PAI-1 (32d PAI-1 OE) prepared in Experimental Example 1 (PAI-1 OE sup; containing a high concentration of PAI-1) was added to 5×10^4 cells of a mouse leukemia cell line (32Dp210), and the cells were cultured on a 96-well plate at 37° C., 5% CO2, for 2 days. Next, the PD-L1 expression level was determined by flow cytometry in the same manner as in Experimental Example 1. As a comparative control experiment, the PD-L1 expression level in untreated mouse leukemia cells (control) was measured in the same manner. […]

[3] = system: regulatory T cells (Treg); experiment: Regulatory T cells in MC38 tumor mass by flow cytometry (Experimental Example 14); assay type: in vivo, mice (C57BL6); details: oral administration for one week, vs vehicle
Protocol: 1) The untreated group and 3) the single-administration group of PAI-1 inhibitor (cancer-bearing mice) of Experimental Example 11, after tumor engraftment, were orally administered with physiological saline (vehicle) or the PAI-1 inhibitor for one week. Thereafter, the tumors were collected, the cells were stained with an anti-CD45 antibody, an anti-CD4 antibody, an anti-CD25 antibody, and an anti-foxp3 antibody, and the percentage of regulatory T cells (Treg) in the tumor mass was analyzed with a flow cytometer.

[4] = system: CD8+ T cells; experiment: Cytotoxic T cells in MC38 tumor mass by flow cytometry (Experimental Example 16); assay type: in vivo, mice (C57BL6); details: oral administration for one week, vs vehicle
Excerpt: 1) The untreated group and 3) the single-administration group of PAI-1 inhibitor (cancer-bearing mice) of Experimental Example 11, after tumor engraftment, were orally administered with physiological saline (vehicle) or the PAI-1 inhibitor for one week. Thereafter, the tumor was collected, the T cells were stained with an anti-CD45 antibody, an anti-CD3 antibody, an anti-CD4 antibody, an anti-CD8 antibody, and an anti-perforin antibody, and the percentage of cytotoxic T cells in the tumor mass was determined with a flow cytometer.

[5] = system: mouse malignant melanoma cell line (B16F10); experiment: PD-L1 expression level by flow cytometry in B16F10 cells (Experimental Example 3); assay type: cell-based; details: inhibitor 50 μM with rPAI-1 40 nM, 2 days, listed as PAI-1 inhibitor
Protocol: Next, the PD-L1 expression level was determined by flow cytometry in the same manner as in Experimental Example 1.
Likewise, a mouse colorectal cancer cell line (MC38) and a mouse malignant melanoma cell line (B16F10) were also tested in the same manner, instead of the mouse leukemia cell line (32Dp210).

[6] = system: mouse leukemia cell line (32Dp210); experiment: PD-L1 mRNA expression by real-time PCR in 32Dp210 cells (Experimental Example 4); assay type: cell-based; details: inhibitor 50 μM with rPAI-1 40 nM or 100 nM, overnight, listed as PAI-1 inhibitor
Protocol: The culture supernatant of the cells overexpressing PAI-1 (32D PAI-1 OE) prepared in Experimental Example 1 (PAI-1 OE sup) was added to a mouse leukemia cell line (32Dp210). In addition, those obtained by adding the PAI-1 inhibitor to a concentration of 50 μM, together with rPAI-1 (40 nM or 100 nM), were also prepared. Then, culturing was performed on a 96-well plate at 37° C., 5% CO2, overnight. The cells were collected, RNA was extracted using ISOGEN2 (Nippon Gene Co., Ltd.), and 100 ng of RNA was subjected to a reverse transcription reaction using a PrimeScript RT-PCR kit (Takara Bio Inc.) to obtain cDNA. The PD-L1 gene expression level was monitored by real-time PCR using TaqMan Fast Advanced Master Mix (Thermo Fisher Scientific). PD-L1 (Mm00452054_m1, Thermo Fisher Scientific) was used as the primer. To standardize the RNA amount, the expression level of 18S rRNA (Hs99999901_s1, Thermo Fisher Scientific) was also measured simultaneously. The PD-L1 gene expression level was determined using a comparative Ct method, which was shown in the graph as a ratio relative to the control group.

[7] = system: cancer-associated fibroblasts (CAF); experiment: Cancer-associated fibroblasts in MC38 tumor sections (Experimental Example 15); assay type: in vivo, mice (C57BL6); details: oral administration for one week, vs vehicle
Excerpt: 1) The untreated group and 3) the single-administration group of PAI-1 inhibitor (cancer-bearing mice) of Experimental Example 11, after tumor engraftment, were orally administered with physiological saline (vehicle) or the PAI-1 inhibitor for one week. Thereafter, the tumor was collected, fixed with paraformaldehyde, and then embedded in paraffin to prepare tissue sections. The tissue sections were stained with an anti-SMAcα antibody, and the percentage of cancer-associated fibroblasts (CAF) was observed under a microscope.

O=C(Nc1ccc(Cl)cc1C(=O)[O-])c1cccc(-c2cccc3cccnc23)c1.[Na+] [Example 68, 5-chloro-2-(((3-(quinolin-8-yl)phenyl)carbonyl)amino)sodium benzoate]
PD-L1 expression level in the tumor cells [1]: reduced | PD-L1 expression induction by rPAI-1 [2]: completely inhibited the induction; also recorded: completely suppressed | percentage of regulatory T cells in the tumor [3]: reduced | percentage of intratumoral infiltration of CD8+ T cells (effector T cells) [4]: increased | PD-L1 expression induction by rPAI-1 [5]: completely inhibited the induction; also recorded: the same results as those of the leukemia cells | increase in PD-L1 mRNA expression by rPAI-1 [6]: inhibited the induction of the expression; also recorded: suppressed | percentage of intratumoral infiltration of cancer-associated fibroblasts [7]: reduced

Reference: US20220340665A1, “INHIBITOR AGAINST EXPRESSION OF IMMUNE CHECKPOINT MOLECULE” (RENASCIENCE INC., priority 2019, published 2022)
